Measured values: US12691100B2, “NMT inhibitor treatment of a senescence-associated disease or disorder of the liver” (Imperial College Innovations Limited, priority 2020, dated 2026)

Assays:
[1] = system: HCT116 colon cancer cells; assay: Senolytic survival assay, chemotherapy-induced senescence in cancer cells; assay type: cell-based, human; conditions: for Survival, senescent versus control cells: second experiment: doxorubicin 100 nM, etoposide 2 μM or cisplatin 100 μM, or DMSO, replenished after 72 h, 48 h more, FIGS. 7A-C
Protocol: IMR90 cells were used to generate inducible ER:RAS (hereinafter iRAS) cells to model Oncogene induced senescence (OIS), through retroviral infection of pLNC-ER:RAS-neo into IMR90 cells followed by selection with Neomycin. IMR90 cells containing the pLNC-ER:RAS plasmid backbone pLXSN were infected in parallel to assess leakiness in the pLNC-ER:RAS system. Treatment with 100 nM 4OHT (Sigma, in DMSO) was used to induce IMR90 ER:RAS cells to undergo oncogene induced senescence (OIS). Therapy induced senescence (TIS) was induced in IMR90 cells by treatment with 33 μM (50 ug/ml) bleomycin sulphate (Generon, HY-17565) for 24 hours, 20 μM palbociclib (Selleckchem, S1116) for 7 days or 100 nM doxorubicin (Cayman chemical, 15007) for 7 days. Senescence was induced in SK-HEP-1 cells by treatment with 2 μM etoposide (Sigma-Aldrich, E1383) for 7 days (FIGS. 4A-C). HCT-116 senescence was induced by 250 nM treatment with doxorubicin (Cayman chemical, 15007) for 48 hours followed by 5 days culture in media without chemotherapy (FIG. 5), or by treatment with 100 nM doxorubicin, 2 μM etoposide or 100 μM cisplatin for 3 days followed by 4 days culture in media without chemotherapy (FIGS. 6A-7C). Senescence was induced in MCF7 by 200 nM treatment with doxorubicin for 7 days, 2 μM etoposide for 7 days or 10 μM cisplatin for 7 days (FIGS. 8A-9C).
High-throughput microscopy survival assay—To assess senolytic effect of drugs, cells were cultured for 7 days, culture media was changed to DM0.5 media and drugs in DMSO were added (<5% v/v final concentration), drugs were replenished after 3 days if assay length was longer than 72 h. Wells were fixed in 4% PFA for 1 hour at day 10 to 14, washed 3 times with PBS and then stained with 1 μg/mL DAPI (w/v, PBS) for 10 minutes. Wells were then washed 3 times with PBS. Optionally plates could be stored at 4° C. for up to 2 weeks and DAPI stained. Image acquisition of DAPI stained cells was performed on an automated InCell Analyser 2000 (GE Healthcare®) and high-content analysis on the InCell Investigator 2.7.3 software used to quantify number of DAPI positive cells per well. […] Survival was measured as cell counts relative to DMSO treated quiescent or senescent cells.
In a first experiment, HCT116 colon cancer cells were treated with doxorubicin (to induce senescence), or DMSO (as a control). […] 7 days after adding the drugs with replenishment after 3 days, cells were fixed, imaged and cells numbers were quantified using high throughput microscopy. […]
In a second experiment, HCT116 were treated with doxorubicin, etoposide or cisplatin (to induce senescence) or DMSO (as a control). 7 days after treatment, BrdU incorporation (to assess cell division), SA-β-Galactosidase activity and p21^CIP1 expression (as markers of senescence) were analysed. […]

IMR90 ER:RAS cells = assay: Golgi dispersal by TGN46 staining, high throughput microscopy; assay type: cell-based, human; conditions: 4OHT-induced senescent cells; 7 days after addition of the drugs; FIGS. 10A-B
Protocol: Immunofluorescence staining was carried out by first fixing wells of 96 well plate at desired timepoint for 1 hour using 4% PFA (w/v, in PBS) followed by washing 3 times with PBS. Wells were then permeabilized using 0.2% Triton® X-100 (v/v, PBS) for 10 min or with 0.5% Triton® X-100 (v/v, PBS) for COPI staining. Wells were then washed twice with PBS to halt permeabilization and then non-specific antibody binding blocked by incubation with a blocking solution for 1 hour at RT. Blocking solution contained 1% BSA (w/v, PBS) supplemented with 0.4% Fish Skin Gelatin (v/v, PBS). Primary antibodies were diluted in respective blocking solution (see ‘Antibodies’ for dilutions), blocking solution removed from well and incubated with primary antibody solution for 1 hour at RT. For BrdU staining primary antibody solution is supplemented with 0.5 U/ul DNase (Sigma) and 1 mM MgCl2 and incubation times reduced to 30 minutes. […]
High content image analysis was carried out using the InCell Investigator 2.7.3 software (GE Healthcare®). […] Quantification for nuclear staining was measured as average pixel intensity (grey scale) for the wavelength of fluorophore across the area of the nuclear mask. Cytoplasmic staining quantification was of either the average pixel intensity or the coefficient of variance of pixel intensities within collar area. […]

SMILES | Survival (cell counts relative to DMSO), senescent versus control cells ([1]; first experiment: doxorubicin or DMSO, compound added 7 days after induction, read 7 days later, FIG. 5) | Survival, senescent versus control cells [1] | Golgi dispersal (TGN46 distribution) (IMR90 ER:RAS cells)
Cc1nn(C)c(C)c1CCOc1c(-c2ccc3c(c2)c(CN(C)C)nn3C)ccc(F)c1F [Compound 1, 1-(5-(3,4-difluoro-2-(2-(1,3,5-trimethyl-1H-pyrazol-4-yl)ethoxy)phenyl)-1-methyl-1H-indazol-3-yl)-N,N-dimethylmethanamine] | preferentially kills cancer cells that undergo senescence after being treated with doxorubicin | preferentially kill cancer cells that undergo senescence after being treated with doxorubicin, etoposide or cisplatin | selectively caused Golgi dispersal on senescent cells
Cc1c(NS(=O)(=O)c2c(Cl)cc(-c3ccnc(N4CCNCC4)c3)cc2Cl)c(CC(C)C)nn1C [Compound 2] |  | preferentially kill cancer cells that undergo senescence after being treated with doxorubicin, etoposide or cisplatin | selectively caused Golgi dispersal on senescent cells
